According to ChEMBL document CHEMBL4619712, “Double-component diazeniumdiolate derivatives as anti-cancer agents” (Bioorg Med Chem, 2020):

How the values were obtained:
A549 = assay: Anticancer activity against human A549 cells assessed as inhibition of cell growth after 72 hrs by MTT or MTS assay; assay type: functional, cell-based; details: A549, 72 h
BT-474 = assay: Anticancer activity against human BT474 cells assessed as inhibition of cell growth after 72 hrs by MTT or MTS assay; assay type: functional, cell-based; details: BT-474, 72 h
Jurkat E6.1 = assay: Anticancer activity against human Jurkat E6-1 cells assessed as inhibition of cell growth after 72 hrs by MTT or MTS assay; assay type: functional, cell-based; details: Jurkat E6.1, 72 h
MDA-MB-231 = assay: Anticancer activity against human MDA-MB-231 cells assessed as inhibition of cell growth after 72 hrs by MTT or MTS assay; assay type: functional, cell-based; details: MDA-MB-231, 72 h
CCRF-CEM = assay: Anticancer activity against human CCRF-CEM cells assessed as inhibition of cell growth after 72 hrs by MTT or MTS assay; assay type: functional, cell-based
[1] = Prodrug conversion assessed as Escherichia coli GST catalyzed NO release at 1 uM measured after 5 hrs in presence of GSH by DAF-FM DA reagent based fluorescence spectrophotometric analysis; assay type: ADME

`O=[N+]([O-])c1ccc(O/N=[N+](\[O-])N2CCN(CCN3CCN(/[N+]([O-])=N/Oc4ccc([N+](=O)[O-])cc4[N+](=O)[O-])CC3)CC2)c([N+](=O)[O-])c1` showed an IC50 (A549) of 17.1 µM, an IC50 (BT-474) of 10.7 µM and an IC50 (Jurkat E6.1) of 3.71 µM. For the same molecule, the IC50 (MDA-MB-231) was 17.6 µM, the IC50 (CCRF-CEM) was 2.64 µM and the “fold change (FC)” value [1] was 2.
